{
  "source": "patent US11999669B1",
  "about": "“Nitrogen activator stabilizer for reducing and protecting nitrogen fertilizer” (KING FAISAL UNIVERSITY, priority 2023, dated 2024)",
  "assay": "Dissolution of ABT-PNB in water",
  "format": "physicochemical",
  "protocol": "Referring to Scheme 2 above, reaction of 0.2 mmol ethyl cyanoacetate with 0.2 mmol thiourea under MW-US condition for 5 min afforded compound 1. One pot reaction of 0.1 mmole of the compound (1) with 0.1 mmole of 2-nitro-6-cyanobenzoic acid (2) in boiling 2 mL ethanol under MW reaction condition for 10 min afforded 6-(imidazo[4,5-d]pyrimidin-2yl) benzoic acid derivative 3. Reflux reaction of the 0.01 mol compound 3 with 0.02 mole ethylchloroacetate in 10 mL acetone for 5 h afforded the ester 4. US promoted reaction of the 0.01 mol of the compound 4 was allowed to react with 0.01 mol of 4-(dimethylamino)butylchloride, thereby affording the desired fertilized ionic liquid ABT-PNB.",
  "data": [
    {"smiles": "CCOC(=O)CSc1nc2c(=O)n(CCCCN(C)C)c(-c3cccc([N+](=O)[O-])c3C(=O)O)nc2[nH]1", "note": "[ABT-PNB, 2-(1-(4-(dimethylamino)butyl)-8-((2-ethoxy-2-oxoethyl)thio)-6-oxo-6,9-dihydro-1H-purin-2-yl)-6-nitrobenzoic acid]", "values": [
      {"measurement": "solubility in water", "value": "easily dissolved in water"}
    ]}
  ]
}
